Measurements from PMC8694143 (Microbiology Spectrum, 2021).
No end group written: not given here.

System: MRSA ATCC 33592 on 3D EpiDerm skin tissues
Assay: Three-dimensional NHEK skin model of MRSA infection
Assay type: cell-based, Staphylococcus aureus
Conditions: 25 μg/mL (4× MIC), 100 μL apical, 16 h after 4 h colonization, 37°C, 5% CO2
Experimental: 3D EpiDerm skin tissues (MatTek EPI-200-AFAB; antifungal and antibiotic-free; 9 mm) contained within a plastic insert lined with a permeable 0.4 μm membrane were transferred to 12-well plates containing antibiotic assay medium (600 μL/well). A fresh MRSA ATCC 33592 culture in the log phase of growth was centrifuged at 10,000 rpm for 5 min to harvest bacterial cells before resuspension in sterile PBS to an […] 5 × 10^6 CFU/mL. Tissues were incubated with 100 μL of the bacterial cell suspension (5 × 10^5 CFU) for 4 h at 37°C in a humidified 5% CO2 environment. After 4 h, the bacterial cell suspension was removed and the apical surface of each tissue was washed 3 times with PBS to remove nonadherent bacterial cells. Next, the colonized skin tissues were treated with a 100 μL volume of STIP3-29 at 25 μg/mL. An equal volume of sterile PBS was used for untreated control experiments. Tissues were then incubated at 37°C in a humidified 5% CO2 environment for 16 h. […] The number of MRSA colonies on each plate was counted and an average CFU/mL was determined for treated and untreated samples. […] The statistical differences in colonization were evaluated using an unpaired two-tailed Student’s t test to compare pretreated (control colonization; CC), untreated control (PBS), and STIP3-29 treated groups.

TVGGLVKWILKTVKKFA-NH2 [STIP3-29]
Effect on the MRSA population on colonized NHEK tissue: prevented the expansion of the MRSA population
